Assay [1] concerns the target T1, CTR-ZO-1 interaction (Homo sapiens, UniProt P30988).
T1 construct: PCR generated full length CTRwt and CTRΔESS cDNAs were cloned directionally into pcDNA3.1 mammalian expression vector; FLAG (N); expressed in transfected cells; host or cells: PC-31 / PC-3 cells stably expressing FLAG-CTRwt; ZO-1 is the cells' own
T1 sequence (P30988 25-474): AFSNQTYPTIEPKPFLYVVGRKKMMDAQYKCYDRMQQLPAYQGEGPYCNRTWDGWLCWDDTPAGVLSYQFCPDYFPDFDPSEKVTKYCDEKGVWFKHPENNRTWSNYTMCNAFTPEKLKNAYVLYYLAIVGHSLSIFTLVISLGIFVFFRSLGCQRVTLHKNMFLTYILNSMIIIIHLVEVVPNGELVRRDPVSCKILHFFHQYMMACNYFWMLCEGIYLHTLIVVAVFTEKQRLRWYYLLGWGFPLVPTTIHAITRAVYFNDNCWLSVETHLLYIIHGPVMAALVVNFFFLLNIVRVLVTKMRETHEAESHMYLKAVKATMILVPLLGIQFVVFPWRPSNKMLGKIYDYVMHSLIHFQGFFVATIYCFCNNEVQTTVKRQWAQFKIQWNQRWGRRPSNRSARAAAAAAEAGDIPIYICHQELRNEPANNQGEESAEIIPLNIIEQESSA
Put plainly: CTR-ZO-1 co-immunoprecipitation. It is filed as cell-based. The conditions noted are these: for co-precipitation of ZO-1 by CTRwt: 3 min, PC-3 cells. As to the method:
(§1) Serum-starved PC-31-V, PC-31-CTRwt or PC-31-CTRΔESS cells (2×10^6 per 100 mm dish) were stimulated with or without 50 nM CT for 3 min, washed, and lysed in the IP buffer as previously described (von Zastrow et al., 1994). CTR in normalized lysate proteins was immunoprecipitated with anti-FLAG EZ-view beads (Sigma Chemical Co., St. Louis, Mo.), and eluted with FLAG peptide (600 μg/ml in PBS). CTR immunoprecipitates were processed for ZO-1 immunoblotting. To control for protein loading and transfer, the blots were stripped and reprobed with immunoprecipitating antibody.
(§2) PC-31 cells stably expressing either FLAG-CTRwt or FLAGCTRΔESS were treated with or without CT for 3 min. The analysis of FLAG-CTR IPs confirmed that only FLAG-CTRwt, but not FLAG-CTRΔESS, co-precipitated ZO-1 (FIG. 3B). […] The effect of multiple CT concentrations on CTR-ZO-1 co-precipitation was tested in PC-3 cells. […] However, co-precipitation of ZO-1 by CTRwt was strong in PC-3 cells stimulated with 10 nM CT, and was even stronger in the cells receiving 100 nM CT.
(§3) As shown above, CTR binds to ZO-1 through PDZ interaction (i.e. PDZ ligand on C-tail of CTR binds to the PDZ domain of ZO-1). To attenuate this binding, ZO-1 was saturated with a small C-terminal peptide of CTR sequence containing the PDZ-binding motif. Since ZO-1 is an intracellular membrane protein, the interfering peptide was delivered inside the plasma membrane. It has been shown that trans-activating transcriptional activator (TAT) protein (86-mer polypeptide) from HIV-1 enters mammalian cells when added to the surrounding media (Frankel et al., 1988; Green et al., 1989). Certain small regions of such proteins (10-16-mers) called protein transduction domains (PTDs), also efficiently traverse biological membranes (Elliott et al., 1997). Therefore, a fusion peptide Pep 1 was synthesized of TAT-peptide sequences of HIV virus and CTR-C(N-[…]-C (SEQ ID NO:2), CTR-C sequence underlined). The first experiment was to see if Pep I binds to ZO-1 in reversible fashion. For this, amino acid Y in Pep I was labeled with ^125I, and the binding with ZO-1 analyzed in the presence/absence of unlabeled Pep I (1000×; 20 μM). PC-3CTR-ZO-1-MYC cells were first incubated with unlabeled Pep I or control peptide (20 μM) for 5 min. The cells were then incubated with ^125I-pep I or C for 25 min. The cells were then washed in IP buffer, treated with DSP, and lysed. ZO-1 IPs were obtained, fractionated on SDS-PAGE, and autoradiographed. […] Next, whether Pep I competes with CTR for ZO-1 binding was tested. For this, PC-3-CTR-wt cells were treated with CT (50 nM) and or Pep I (50 μM) for 15 min. The CTR IPs were then immunoblotted and probed for ZO-1 immunoreactivity. […] Next, the biological impact of this phenomenon was examined by testing the effect of Pep I on CTR-stimulated invasion.

The target of assay [2] is T2, CTR-ZO-1 interaction (Homo sapiens, UniProt P30988, E471A/S472A/S473A).
T2 construct: PCR generated full length CTRwt and CTRΔESS cDNAs were cloned directionally into pcDNA3.1 mammalian expression vector; FLAG (N); expressed in transfected cells; host or cells: PC-31 / PC-3 cells stably expressing FLAG-CTRwt; ZO-1 is the cells' own
T2 sequence (P30988 with tags, fused parts or gaps): T1 sequence (P30988 25-474) with E447A, S448A, S449A
Put plainly: CTR-ZO-1 co-immunoprecipitation. It is filed as cell-based. The conditions noted are these: all CT concentrations. As to the method:
as §1, §2, §3

Substitutions are numbered along the chain they refer to. “Also recorded” adds a separate entry of the source.

For calcitonin [CT], the results for the “co-precipitation of ZO-1 by CTRwt” value on CTR-ZO-1 interaction [1] (1 nM CT) and on CTR-ZO-1 interaction [1] (10 nM CT) were “barely detectable” and “strong”, respectively. Also, the “co-precipitation of ZO-1 with CTRwt, activated versus dormant” value at CTR-ZO-1 interaction [1] (CT 50 nM) is listed as “much more efficiently; also recorded: increased”. Further, the “co-precipitation of ZO-1 by CTRΔESS” value at CTR-ZO-1 interaction [2] is “not co-precipitated”.

The record behind these values is patent publication US9765115B2, “Inhibitors of metastasis, methods of generating such inhibitors and their therapeutic applications” (Board of Supervisors of Louisiana State University acting …, priority 2011, dated 2017).
